From patent US5851782A, “Inhibitors of ceramidase” (Duke University, priority 1996, dated 1998)

How the values were obtained:
acidic sphingomyelinase = biological target: T1, acidic sphingomyelinase (Homo sapiens, UniProt P17405); assay: Acidic sphingomyelinase activity in vitro; assay type: biochemical
T1 sequence (P17405 47-631): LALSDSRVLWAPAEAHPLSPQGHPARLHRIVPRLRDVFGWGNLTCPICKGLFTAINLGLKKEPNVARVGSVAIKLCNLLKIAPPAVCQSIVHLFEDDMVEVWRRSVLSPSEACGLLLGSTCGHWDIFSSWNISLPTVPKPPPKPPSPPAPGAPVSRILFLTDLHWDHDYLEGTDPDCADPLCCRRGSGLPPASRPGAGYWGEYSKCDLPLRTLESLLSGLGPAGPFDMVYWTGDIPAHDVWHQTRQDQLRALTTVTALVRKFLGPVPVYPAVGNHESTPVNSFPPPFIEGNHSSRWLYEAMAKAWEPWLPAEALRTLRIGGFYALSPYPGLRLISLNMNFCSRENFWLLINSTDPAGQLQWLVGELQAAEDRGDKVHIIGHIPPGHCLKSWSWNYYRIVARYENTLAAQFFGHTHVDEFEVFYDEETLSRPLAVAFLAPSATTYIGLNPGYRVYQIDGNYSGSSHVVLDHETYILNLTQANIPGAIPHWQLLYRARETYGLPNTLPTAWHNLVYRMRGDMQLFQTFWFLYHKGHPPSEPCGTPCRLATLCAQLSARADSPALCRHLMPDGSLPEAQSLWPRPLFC
Source text: In addition to ceramidase, inhibition of cerebroside synthase and sphingomyelin synthase or stimulation of sphingomyelinase or cerebrosidase could result in elevations in endogenous ceramide levels. Therefore, the effects of D- and L-e-MAPP were examined on these enzyme activities in vitro and in cells.

alkaline ceramidase = assay: Alkaline ceramidase activity in vitro at pH 9.0; assay type: biochemical, human; conditions: for use as substrate by alkaline ceramidase: 50 μM tritium-labeled substrate, HL-60 preparation
Procedure: Measurement of ceramidase activity in HL-60 cells. Ceramidase activity in HL-60 cells was measured by a modification of the method of Gatt and Yavin (Methods Enzymol. 14:139 (1969)). Cells were disrupted by sonication in 0.25M sucrose, 1 mM EDTA, and centrifuged at 10,000×g for 10 min after which the supernatant was centrifuged at 100,000×g for 60 min. Ten μl of 1 mM ceramide substrate ([^3 H]C16 -ceramide) was mixed with 100 μl of Triton X-100 (0.1%) in chloroform/methanol, 2:1, and 100 μl of 0.2% sodium cholate in chloroform/methanol, 2:1, after which the solvent was evaporated under N2 at 70° C. To this mixture, 30 μl of water was added and the tubes were heated for 5 s in an 80° C. water bath and then put on ice. Fifty μl of the appropriate buffer depending on desired pH was added followed by 20 μl of 50 mM MgCl2 and 100 μl of cell extract. In experiments using inhibitors, the desired inhibitor was added in ethanol either with the substrate or directly to the final solution. The reaction mixture was incubated for 1 h at 37° C. The ^3 H-fatty acid products of ceramidase were separated by the addition of 2 ml of Dole's solution (isopropyl alcohol, heptane, NaOH), 1.2 ml of heptane, and 1 ml of water. After vortexing and centrifugation, the upper phase was discarded and the lower phase was washed twice with heptane and the upper phase discarded each time. Finally, 1 ml of 1N H2 SO4, and 2 ml of heptane were added, and after vortexing and centrifugation the upper phase was transferred for counting by liquid scintillation.
In order to evaluate the interactions of D- and L-e-MAPP with ceramidase, in vitro studies we conducted using cytosolic and membrane fractions from HL-60 cells. Initially, ceramidase activity was examined for pH dependence using tritium-labeled C16 -ceramide as substrate. […] The alkaline ceramidase activity was very similar to that described in fibroblasts and cerebellar tissue (Sugita et al, Biochim. Biophys. Acta 398:125 (1975), Wertz and Downing, FEBS Lett. 268:110 (1990)). In initial studies, the ability of this ceramidase to utilize D-e- and L-e-MAPP as substrates was investigated. […] These studies corroborate the cellular metabolism studies showing that L-e-MAPP is a substrate for ceramidase in vitro and in cells.
Next, the ability of D- and L-e-MAPP to interfere with hydrolysis of C16 -ceramide by ceramidase at pH 4.5 and 9.0 was evaluated. Inhibition of ceramidase activity by D-e-MAPP was compared to that by N-oleoylethanolamine, a putative inhibitor of acid ceramidase (Sugita et al, Biochim. Biophys. Acta 398:125 (1975)). […] The effects of N-oleoylethanolamine are consistent with the previously reported Ki of 700 μM (Sugita et al, Biochim. Biophys. Acta 398:125 (1975)). […] In contrast, D-e-MAPP was a relatively poor inhibitor of acid ceramidase with less than 10% inhibition of acid ceramidase at 50 μM (FIG. 6C).

HL-60 cells = assay: Cellular metabolism of tritium-labeled compounds (TLC); assay type: cell-based, human; conditions: HL-60, 5 μM, TLC
Procedure: (§1) Metabolism studies. Lipids from cells treated with ^3 H-labeled compounds were extracted (Bligh & Dyer method), dried, resuspended in chloroform/methnol (10:1, v/v), and subjected to separation by TLC in chloroform/methanol (4:1, v/v). Spots containing radioactive compounds were scraped and radioactivity was measured using a scintillation counter.
(§2) Next, the metabolism of D- and L-e-MAPP was evaluated. To this end, organic lipids were extracted from cells treated with 5 μM D- or L-e-MAPP at the indicated time points (FIG. 5D), and lipids were resolved on TLC. […] On the other hand, L-e-MAPP underwent significant metabolism in a time-dependent fashion such that by 24 h, more than 70% of the L-e-MAPP taken up by cells was metabolized (FIG. 5, D and E). Two major breakdown products of L-e-MAPP were resolved by TLC. One metabolite co-migrated with […] and not with other neutral or polar lipids. The other metabolite (upper spot in FIG. 5D) comigrated with triacylglycerol.

[1] = tested on: ceramidase in HL-60 cells; assay: Inhibition of L-e-MAPP metabolism in cells (ceramidase activity in cells); assay type: cell-based, human
Procedure: as §1
Since D-e-MAPP inhibits ceramidase in cells, then it should also protect L-e-MAPP from metabolic degradation. Therefore, the effects of D-e-MAPP on metabolism of L-e-MAPP were examined. HL-60 cells were treated with tritium-labeled L-e-MAPP (3 μM), and the metabolism of L-e-MAPP was evaluated in the presence and absence of 3 μM D-e-MAPP. […] The effects of D-e-MAPP on metabolism of L-e-MAPP were dose dependent with most of the inhibition occurring at levels of D-e-MAPP of 1-3 μM (FIG. 8B).

[2] = Cellular metabolism of tritium-labeled compounds (TLC); assay type: cell-based, human; conditions: human, hl-60 cells; HL-60, 5 μM, by 24 h; read-out: fraction of compound taken up that was metabolized
Procedure: as §1, §2

CCCCCCCCCCCCCC(=O)N[C@H](C)[C@@H](O)c1ccccc1 [D-e-MAPP, D-erythro-2-(N-myristolyamino)-1-phenyl-1-propanol]
effect on activity of acidic sphingomyelinase (acidic sphingomyelinase): neither D- nor L-e-MAPP modulated the activity of neutral or acidic sphingomyelinases
use as substrate by alkaline ceramidase (alkaline ceramidase): not substrate for the alkaline ceramidase
inhibition of alkaline ceramidase in vitro (alkaline ceramidase; final concentration of 5 μM): approximately 60%
IC50 (alkaline ceramidase; pH 9.0, 50 μM C16-ceramide substrate): 1000 to 5000 nM
metabolism in cells (HL-60 cells): showed little metabolism and remained intact
effect on breakdown of L-e-MAPP in cells ([1]; HL-60, 3 μM tritium-labeled L-e-MAPP, 3 μM D-e-MAPP): prevented the breakdown of L-e-MAPP
levels at which most of the inhibition of L-e-MAPP metabolism occurs ([1]; HL-60, dose dependence): 1 to 3 µM

CCCCCCCCCCCCCC(=O)N[C@@H](C)[C@H](O)c1ccccc1 [L-e-MAPP, L-erythro-2-(N-myristolyamino)-1-phenyl-1-propanol]
effect on activity of acidic sphingomyelinase (acidic sphingomyelinase): neither D- nor L-e-MAPP modulated the activity of neutral or acidic sphingomyelinases
use as substrate by alkaline ceramidase (alkaline ceramidase): readily hydrolyzed by ceramidase to a level equivalent to that seen with C16 -ceramide
metabolised at 24 h, 5 µM [2]: > 70%
